# In patent publication US4175125A, “Method for treating methicillin resistant staphylococcus aureus” (Eli Lilly and Company, priority 1978, dated 1979):
# Columns and labels:
# S. typhosa SA12 = test: In vitro MIC in agar, additional microorganisms; format: cell-based
# physchem = settings: water
# [1] = tested on: Streptococcus pyogenes C203; test: MIC in broth against Streptococcus pyogenes C203; format: cell-based
# Procedure: The MIC for the compound of Example 13 against Streptococcus pyogenes C203 in broth was 0.008 μg/ml.
# [2] = tested on: Staphylococcus aureus cultures; test: Agar dilution MIC, Example 13 compound vs methicillin resistant Staphylococcus aureus; format: cell-based
# Excerpt: The table which follows gives the minimum inhibitory concentration (MIC) in micrograms of compound per milliliter of culture (μg/ml), in comparison with similar MIC values for the known antibiotics methicillin, cephalothin and cephaloridine against the same strains of bacteria.
# [3] = water
# T. mentagrophytes 27 = test: In vitro MIC in agar, additional microorganisms; format: cell-based; settings: Trichophyton mentagrophytes
# Excerpt: (§1) The compound of Example 13 gave the following in vitro minimum inhibitory concentrations (MIC values), in microgram/milliliter of agar (μg/ml.) against the following additional microorganisms
# C. tropicalis A17 = test: In vitro MIC in agar, additional microorganisms; format: cell-based; settings: Candida tropicalis
# Excerpt: as §1
# C. ulmi = test: In vitro MIC in agar, additional microorganisms; format: cell-based
# Excerpt: as §1
# S. facalis X66 = test: In vitro MIC in agar, additional microorganisms; format: cell-based
# Excerpt: as §1
# C. freundii CF17 = test: In vitro MIC in agar, additional microorganisms; format: cell-based; settings: Citrobacter freundii
# Excerpt: as §1
# E. amylovora = test: In vitro MIC in agar, additional microorganisms; format: cell-based; settings: Erwinia amylovora
# Excerpt: as §1
# S. marcescens SE3 = test: In vitro MIC in agar, additional microorganisms; format: cell-based; settings: Serratia marcescens
# Excerpt: as §1
# E. coli EC14 = test: In vitro MIC in agar, additional microorganisms; format: cell-based; settings: Escherichia coli
# Excerpt: as §1
# E. aerogenes EB17 = test: In vitro MIC in agar, additional microorganisms; format: cell-based; settings: Klebsiella aerogenes
# Excerpt: as §1
# P. aeroginosa X239 = test: In vitro MIC in agar, additional microorganisms; format: cell-based
# Excerpt: as §1
# H. pneumoniae KL14 = test: In vitro MIC in agar, additional microorganisms; format: cell-based; settings: Klebsiella pneumoniae
# Excerpt: as §1
# B. bronchiseptica = test: In vitro MIC in agar, additional microorganisms; format: cell-based; settings: Bordetella bronchiseptica
# Excerpt: as §1
# S. aureus = test: In vitro MIC in agar, additional microorganisms; format: cell-based; settings: Staphylococcus aureus
# Excerpt: as §1
# P. solenaecarum X185 = test: In vitro MIC in agar, additional microorganisms; format: cell-based
# Excerpt: as §1
# S. typhimurium = test: In vitro MIC in agar, additional microorganisms; format: cell-based; settings: Salmonella enterica
# Excerpt: as §1
# A. flavus = test: In vitro MIC in agar, additional microorganisms; format: cell-based; settings: Aspergillus flavus
# Excerpt: as §1
# [4] = tested on: P. morganii, indole positive; test: In vitro MIC in agar, additional microorganisms; format: cell-based; settings: Morganella morganii
# Excerpt: as §1
smiles,measurement,setting,value
Cc1nnc(SCC2=C(C(=O)[O-])N3C(=O)C(NC(=O)CSc4ccc(F)c(Cl)c4)[C@H]3SC2)s1.[Na+] (stereo partly shown),MIC,S. typhosa SA12,32 µg/mL
same,solubility,physchem,> 100 mg/mL
same,MIC,[1],0.008 µg/mL
same,MIC,"[2]; culture 3055 (control), Trypticase Soy Agar with 4.5% NaCl added (5% NaCl)",0.03 µg/mL
same,MIC,"[2]; culture 3055 (control), Trypticase Soy Agar, 0.5% NaCl",0.03 µg/mL
same,MIC,"[2]; culture 3130, Trypticase Soy Agar with 4.5% NaCl added (5% NaCl)",0.25 µg/mL
same,MIC,"[2]; culture 3130, Trypticase Soy Agar, 0.5% NaCl",0.5 µg/mL
same,MIC,"[2]; culture 3131, Trypticase Soy Agar with 4.5% NaCl added (5% NaCl)",0.25 µg/mL
same,MIC,"[2]; culture 3131, Trypticase Soy Agar, 0.5% NaCl",0.25 µg/mL
same,MIC,"[2]; culture 3132, Trypticase Soy Agar with 4.5% NaCl added (5% NaCl)",0.13 µg/mL
same,MIC,"[2]; culture 3132, Trypticase Soy Agar, 0.5% NaCl",0.13 µg/mL
same,MIC,"[2]; culture 3133, Trypticase Soy Agar with 4.5% NaCl added (5% NaCl)",0.13 µg/mL
same,MIC,"[2]; culture 3133, Trypticase Soy Agar, 0.5% NaCl",0.13 µg/mL
same,MIC,"[2]; culture 3134, Trypticase Soy Agar with 4.5% NaCl added (5% NaCl)",0.25 µg/mL
same,MIC,"[2]; culture 3134, Trypticase Soy Agar, 0.5% NaCl",1 µg/mL
same,MIC,"[2]; culture 3135, Trypticase Soy Agar with 4.5% NaCl added (5% NaCl)",0.5 µg/mL
same,MIC,"[2]; culture 3135, Trypticase Soy Agar, 0.5% NaCl",0.5 µg/mL
same,MIC,"[2]; culture 3136, Trypticase Soy Agar with 4.5% NaCl added (5% NaCl)",0.5 µg/mL
same,MIC,"[2]; culture 3136, Trypticase Soy Agar, 0.5% NaCl",0.25 µg/mL
same,MIC,"[2]; culture 3137, Trypticase Soy Agar with 4.5% NaCl added (5% NaCl)",1 µg/mL
same,MIC,"[2]; culture 3137, Trypticase Soy Agar, 0.5% NaCl",1 µg/mL
same,MIC,"[2]; culture 3138, Trypticase Soy Agar with 4.5% NaCl added (5% NaCl)",0.5 µg/mL
same,MIC,"[2]; culture 3138, Trypticase Soy Agar, 0.5% NaCl",1 µg/mL
same,MIC,"[2]; culture 3139, Trypticase Soy Agar with 4.5% NaCl added (5% NaCl)",0.03 µg/mL
same,MIC,"[2]; culture 3139, Trypticase Soy Agar, 0.5% NaCl",0.25 µg/mL
same,MIC,"[2]; culture H232 (control), Trypticase Soy Agar with 4.5% NaCl added (5% NaCl)",0.06 µg/mL
same,MIC,"[2]; culture H232 (control), Trypticase Soy Agar, 0.5% NaCl",0.06 µg/mL
same,MIC,"[2]; culture Havarmak 1136501, Trypticase Soy Agar with 4.5% NaCl added (5% NaCl)",1 µg/mL
same,MIC,"[2]; culture Havarmak 1136501, Trypticase Soy Agar, 0.5% NaCl",0.5 µg/mL
same,MIC,"[2]; culture S 61, Trypticase Soy Agar with 4.5% NaCl added (5% NaCl)",0.5 µg/mL
same,MIC,"[2]; culture S 61, Trypticase Soy Agar, 0.5% NaCl",0.5 µg/mL
same,MIC,"[2]; culture Seattle 966, Trypticase Soy Agar with 4.5% NaCl added (5% NaCl)",0.06 µg/mL
same,MIC,"[2]; culture Seattle 966, Trypticase Soy Agar, 0.5% NaCl",0.25 µg/mL
same,solubility upon warming (in words),[3],increases
same,MIC,T. mentagrophytes 27,> 128 µg/mL
same,MIC,C. tropicalis A17,> 128 µg/mL
same,MIC,C. ulmi,> 128 µg/mL
same,MIC,S. facalis X66,400 µg/mL
same,MIC,C. freundii CF17,> 128 µg/mL
same,MIC,E. amylovora,64 µg/mL
same,MIC,S. marcescens SE3,> 128 µg/mL
same,MIC,E. coli EC14,64 µg/mL
same,MIC,E. aerogenes EB17,128 µg/mL
same,MIC,P. aeroginosa X239,> 128 µg/mL
same,MIC,H. pneumoniae KL14,64 µg/mL
same,MIC,B. bronchiseptica,> 128 µg/mL
same,MIC,S. aureus; S. aureus 3055 (penicillin G susceptible),0.031 µg/mL
same,MIC,S. aureus; S. aureus 3074 (Pen G. resist.),0.062 µg/mL
same,MIC,P. solenaecarum X185,> 128 µg/mL
same,MIC,S. typhimurium,128 µg/mL
same,MIC,A. flavus,> 128 µg/mL
same,MIC,[4],> 128 µg/mL
